Measurements: ChEMBL document CHEMBL3044830, “Synthesis, characterization, antibacterial, antifungal, and immunomodulating activities of gatifloxacin derivatives” (Med Chem Res, 2010)

Assays:
[1] = tested on: Trichophyton rubrum; assay: Antifungal activity against Trichophyton rubrum assessed as zone of inhibition at 5 to 40 ug/ml after 7 days by disk diffusion method relative to gatifloxacin; assay type: functional
[2] = tested on: Proteus mirabilis; assay: Antibacterial activity against Proteus mirabilis assessed as zone of inhibition at 5 to 40 ug/ml after 18 to 24 hr by disc diffusion method relative to gatifloxacin; assay type: functional
[3] = tested on: Proteus mirabilis; assay: Antibacterial activity against Proteus mirabilis assessed as concentration required to obtain a zone of inhibition of 10 mm after 18 to 24 hr by disc diffusion method; assay type: functional
[4] = tested on: Proteus mirabilis; assay: Antibacterial activity against Proteus mirabilis assessed as concentration required to obtain a zone of inhibition of 20 mm after 18 to 24 hr by disc diffusion method; assay type: functional
[5] = tested on: Proteus mirabilis; assay: Antibacterial activity against Proteus mirabilis assessed as concentration required to obtain a zone of inhibition of 5 mm after 18 to 24 hr by disc diffusion method; assay type: functional
[6] = tested on: Klebsiella pneumoniae; assay: Antibacterial activity against Klebsiella pneumoniae assessed as zone of inhibition at 5 to 40 ug/ml after 18 to 24 hr by disk diffusion method relative to gatifloxacin; assay type: functional
[7] = tested on: Shigella flexneri; assay: Antibacterial activity against Shigella flexneri assessed as concentration required to obtain a zone of inhibition of 5 mm after 18 to 24 hr by disk diffusion method; assay type: functional
[8] = tested on: Escherichia coli; assay: Antibacterial activity against Escherichia coli assessed as concentration required to obtain a zone of inhibition of 20 mm after 18 to 24 hr by disk diffusion method; assay type: functional
[9] = tested on: Shigella flexneri; assay: Antibacterial activity against Shigella flexneri assessed as zone of inhibition at 5 to 40 ug/ml after 18 to 24 hr by disk diffusion method relative to gatifloxacin; assay type: functional
[10] = tested on: Shigella flexneri; assay: Antibacterial activity against Shigella flexneri assessed as concentration required to obtain a zone of inhibition of 20 mm after 18 to 24 hr by disk diffusion method; assay type: functional
[11] = tested on: Escherichia coli; assay: Antibacterial activity against Escherichia coli assessed as zone of inhibition at 5 to 40 ug/ml after 18 to 24 hr by disk diffusion method relative to gatifloxacin; assay type: functional
[12] = tested on: Staphylococcus aureus; assay: Antibacterial activity against methicillin-resistant Staphylococcus aureus assessed as zone of inhibition at 5 to 40 ug/ml after 18 to 24 hr by disk diffusion method relative to gatifloxacin; assay type: functional
[13] = tested on: Staphylococcus aureus; assay: Antibacterial activity against methicillin-resistant Staphylococcus aureus assessed as concentration required to obtain a zone of inhibition of 5 mm after 18 to 24 hr by disk diffusion method; assay type: functional
[14] = tested on: Bacillus subtilis; assay: Antibacterial activity against Bacillus subtilis assessed as zone of inhibition at 5 to 40 ug/ml after 18 to 24 hr by disk diffusion method relative to gatifloxacin; assay type: functional
[15] = tested on: Bacillus subtilis; assay: Antibacterial activity against Bacillus subtilis assessed as concentration required to obtain a zone of inhibition of 20 mm after 18 to 24 hr by disk diffusion method; assay type: functional
[16] = tested on: Bacillus subtilis; assay: Antibacterial activity against Bacillus subtilis assessed as concentration required to obtain a zone of inhibition of 10 mm after 18 to 24 hr by disk diffusion method; assay type: functional
[17] = tested on: Bacillus subtilis; assay: Antibacterial activity against Bacillus subtilis assessed as concentration required to obtain a zone of inhibition of 5 mm after 18 to 24 hr by disk diffusion method; assay type: functional
[18] = tested on: Pseudomonas aeruginosa; assay: Antibacterial activity against Pseudomonas aeruginosa assessed as concentration required to obtain a zone of inhibition of 10 mm after 18 to 24 hr by disk diffusion method; assay type: functional
[19] = tested on: Pseudomonas aeruginosa; assay: Antibacterial activity against Pseudomonas aeruginosa assessed as concentration required to obtain a zone of inhibition of 5 mm after 18 to 24 hr by disk diffusion method; assay type: functional
[20] = tested on: Citrobacter; assay: Antibacterial activity against Citrobacter assessed as zone of inhibition at 5 to 40 ug/ml after 18 to 24 hr by disk diffusion method relative to gatifloxacin; assay type: functional
[21] = tested on: Citrobacter; assay: Antibacterial activity against Citrobacter assessed as concentration required to obtain a zone of inhibition of 20 mm after 18 to 24 hr by disk diffusion method; assay type: functional
[22] = tested on: Citrobacter; assay: Antibacterial activity against Citrobacter assessed as concentration required to obtain a zone of inhibition of 10 mm after 18 to 24 hr by disk diffusion method; assay type: functional
[23] = tested on: Shigella sp.; assay: Antibacterial activity against Shigella typhi assessed as zone of inhibition after 18 to 24 hr by disc diffusion method relative to gatifloxacin; assay type: functional
[24] = tested on: Shigella sp.; assay: Antibacterial activity against Shigella typhi assessed as concentration required to obtain a zone of inhibition of 5 mm after 18 to 24 hr by disc diffusion method; assay type: functional
[25] = tested on: T-cell; assay: Anti-inflammatory activity in Homo sapiens (human) T lymphocytes assessed as inhibition of PHA-induced [3H] thymidine uptake incubated for 72 hr prior to [3H]thymidine addition measured after 18 hr by liquid scintillation method; assay type: functional, cell-based
[26] = tested on: T-cell; assay: Anti-inflammatory activity in Homo sapiens (human) T lymphocytes assessed as inhibition of PHA-induced [3H] thymidine uptake at 3.12 ug/ml incubated for 72 hr prior to [3H]thymidine addition measured after 18 hr by liquid scintillation method; assay type: functional
[27] = tested on: T-cell; assay: Anti-inflammatory activity in Homo sapiens (human) T lymphocytes assessed as inhibition of PHA-induced [3H] thymidine uptake at 12.5 ug/ml incubated for 72 hr prior to [3H]thymidine addition measured after 18 hr by liquid scintillation method; assay type: functional
[28] = tested on: T-cell; assay: Anti-inflammatory activity in Homo sapiens (human) T lymphocytes assessed as inhibition of PHA-induced [3H] thymidine uptake at 50 ug/ml incubated for 72 hr prior to [3H]thymidine addition measured after 18 hr by liquid scintillation method; assay type: functional
[29] = tested on: Blood; assay: Antioxidant activity in Homo sapiens (human) whole blood assessed as inhibition of ROS production at 12.5 ug/ml after 30 min by luminol-enhanced chemiluminescence assay; assay type: functional; settings: 0.5 h
[30] = tested on: Saccharomyces cerevisiae; assay: Antifungal activity against Saccharomyces cerevisiae assessed as zone of inhibition at 5 to 40 ug/ml after 7 days by disk diffusion method relative to gatifloxacin; assay type: functional
[31] = tested on: Candida albicans; assay: Antifungal activity against Candida albicans assessed as zone of inhibition at 5 to 40 ug/ml after 7 days by disk diffusion method relative to gatifloxacin; assay type: functional
[32] = tested on: Candida albicans; assay: Antifungal activity against Candida albicans assessed as concentration required to obtain a zone of inhibition of 40 mm after 7 days by disk diffusion method; assay type: functional
[33] = tested on: Candida albicans; assay: Antifungal activity against Candida albicans assessed as concentration required to obtain a zone of inhibition of 20 mm after 7 days by disk diffusion method; assay type: functional
[34] = Antibacterial activity against Hofmanni bacterium assessed as zone of inhibition after 18 to 24 hr by disc diffusion method relative to gatifloxacin
[35] = Antibacterial activity against Hofmanni bacterium assessed as concentration required to obtain a zone of inhibition of 5 mm after 18 to 24 hr by disc diffusion method
[36] = Antibacterial activity against Hofmanni bacterium assessed as concentration required to obtain a zone of inhibition of 20 mm after 18 to 24 hr by disc diffusion method

With COc1c(N2CCN(C(=O)c3ccccc3)C(C)C2)c(F)cc2c(=O)c(C(=O)O)cn(C3CC3)c12.O (stereo not drawn) the “inhibition zone (IZ)” value [1] was 185%, the “inhibition zone (IZ)” value [2] was 78.8% and the Activity [3] was 11 µg/mL. The Activity [4] was 12 µg/mL, the Activity [5] was 9 µg/mL and the “inhibition zone (IZ)” value [6] was 99.8%. For the same molecule, the Activity [7] was 11 µg/mL, the Activity [8] was 19 µg/mL and the “inhibition zone (IZ)” value [9] was 88.1%. The Activity [10] was 14 µg/mL, the “inhibition zone (IZ)” value [11] was 117.3% and the “inhibition zone (IZ)” value [12] was 87.4%. The Activity [13] was 9 µg/mL, the “inhibition zone (IZ)” value [14] was 104% and the Activity [15] was 18 µg/mL. The Activity [16] was 15 µg/mL, the Activity [17] was 12 µg/mL and the Activity [18] was 12 µg/mL. The Activity [19] was 10 µg/mL, the “inhibition zone (IZ)” value [20] was 47.6% and the Activity [21] was 12 µg/mL. For the same molecule, the Activity [22] was 10 µg/mL, the “inhibition zone (IZ)” value [23] was 80.2% and the Activity [24] was 8 µg/mL. The IC50 [25] was greater than 50 µg/mL, the inhibition at 3.12 µg/mL [26] was -59.5% and the inhibition at 12.5 µg/mL [27] was -41.5%. For the same molecule, the inhibition at 50 µg/mL [28] was -6.9%, the inhibition at 12.5 µg/mL [29] was -5.1% and the “inhibition zone (IZ)” value [30] was 0%. The “inhibition zone (IZ)” value [31] was 141%, the Activity [32] was 14 µg/mL and the Activity [33] was 10 µg/mL. The “inhibition zone (IZ)” value [34] was 86%, the Activity [35] was 6 µg/mL and the Activity [36] was 14 µg/mL.
For COc1c(N2CCN(C(C)=O)C(C)C2)c(F)cc2c(=O)c(C(=O)O)cn(C3CC3)c12.O (stereo not drawn), the “inhibition zone (IZ)” value [1] was 239%, the “inhibition zone (IZ)” value [2] was 76.6% and the Activity [3] was 10 µg/mL. For the same molecule, the Activity [4] was 12 µg/mL, the Activity [5] was 9 µg/mL and the “inhibition zone (IZ)” value [6] was 158%. For the same molecule, the Activity [7] was 19 µg/mL, the Activity [8] was 22 µg/mL and the “inhibition zone (IZ)” value [9] was 151%. For the same molecule, the Activity [10] was 24 µg/mL, the “inhibition zone (IZ)” value [11] was 134.8% and the “inhibition zone (IZ)” value [12] was 124%. The Activity [13] was 14 µg/mL, the “inhibition zone (IZ)” value [14] was 100% and the Activity [15] was 17 µg/mL. For the same molecule, the Activity [16] was 15 µg/mL, the Activity [17] was 11 µg/mL and the Activity [18] was 17 µg/mL. The Activity [19] was 11 µg/mL, the “inhibition zone (IZ)” value [20] was 98.9% and the Activity [21] was 24 µg/mL. For the same molecule, the Activity [22] was 21 µg/mL, the “inhibition zone (IZ)” value [23] was 113% and the Activity [24] was 9 µg/mL. It also gave an IC50 [25] greater than 50 µg/mL, an inhibition at 3.12 µg/mL [26] of -23.4% and an inhibition at 12.5 µg/mL [27] of -35.7%. The inhibition at 50 µg/mL [28] was -52.3%, the inhibition at 12.5 µg/mL [29] was -14.3% and the “inhibition zone (IZ)” value [30] was 0%. The “inhibition zone (IZ)” value [31] was 206%, the Activity [32] was 19 µg/mL and the Activity [33] was 16 µg/mL. The “inhibition zone (IZ)” value [34] was 99%, the Activity [35] was 8 µg/mL and the Activity [36] was 16 µg/mL.
With CCCCCCCC(=O)N1CCN(c2c(F)cc3c(=O)c(C(=O)O)cn(C4CC4)c3c2OC)CC1C.O (stereo not drawn) the “inhibition zone (IZ)” value [1] was 127%, the “inhibition zone (IZ)” value [2] was 92% and the Activity [3] was 12 µg/mL. For the same molecule, the Activity [4] was 14 µg/mL, the Activity [5] was 11 µg/mL and the “inhibition zone (IZ)” value [6] was 113%. The Activity [7] was 12 µg/mL, the Activity [8] was 14 µg/mL and the “inhibition zone (IZ)” value [9] was 105%. The Activity [10] was 20 µg/mL, the “inhibition zone (IZ)” value [11] was 90.78% and the “inhibition zone (IZ)” value [12] was 76.7%. The Activity [13] was 7 µg/mL, the “inhibition zone (IZ)” value [14] was 80.2% and the Activity [15] was 13 µg/mL. The Activity [16] was 11 µg/mL, the Activity [17] was 10 µg/mL and the Activity [18] was 10 µg/mL. The Activity [19] was 8 µg/mL, the “inhibition zone (IZ)” value [20] was 51.5% and the Activity [21] was 15 µg/mL. For the same molecule, the Activity [22] was 10 µg/mL, the “inhibition zone (IZ)” value [23] was 87.5% and the Activity [24] was 8 µg/mL. It also gave an IC50 [25] greater than 50 µg/mL, an inhibition at 3.12 µg/mL [26] of -59.5% and an inhibition at 12.5 µg/mL [27] of -41.5%. For the same molecule, the inhibition at 50 µg/mL [28] was -6.9%, the inhibition at 12.5 µg/mL [29] was 74.1% and the “inhibition zone (IZ)” value [30] was 0%. The “inhibition zone (IZ)” value [31] was 218%, the Activity [32] was 21 µg/mL and the Activity [33] was 16 µg/mL. The “inhibition zone (IZ)” value [34] was 88%, the Activity [35] was 7 µg/mL and the Activity [36] was 14 µg/mL.
